In US20210300932A1, “CYCLIC PEPTIDES TARGETING ALPHA-4-BETA-7 INTEGRIN” (Zealand Pharma A/S, priority 2015, published 2021):

What was measured:
Aqueous solubility assay = type: physicochemical; conditions: PBS pH 7.4, four hours, room temperature
Description: Solutions were incubated for four hours at room temperature and stirred at 600 rpm and run in triplicate. Centrifugation was performed for 15 minutes at 6000 rpm and solution concentration was determined using HPLC-UV (photodiode array detector acquiring between 220 nm, and 300 nm wavelengths).

[1] = Plasma protein binding determination, equilibrium dialysis, mouse plasma; conditions: first table
Description: (§2) An equilibrium dialysis (HTDialysis) method was used employing 50% plasma collected from CD-1 mice or Sprague-Dawley rats and incubated with K2EDTA. Test articles were assessed at 1 microM concentration in three replicates. Incubation time as 5 hours and plasma and buffer standards were assessed using LC/MS/MS. Percentage recovery was calculated as (Cbuffer+Cplasma)/[average]Cinitial, [average]Cinitial being measured in triplicate from the test samples prior to dialysis. Percentage of compound unbound was calculated as Cbuffer/Cplasma.

[2] = test system: integrin alpha-4-beta-7-expressing T lymphocytes; assay: In vivo T lymphocyte trafficking analyses in DSS-treated mice; design: species or system C57BI/6 mice
Description: In Vivo T Lymphocyte Trafficking Analyses
(§1) Animals. Female C57BI/6 mice (Charles River, St-Constant, Qc), weighting 16-19 g at delivery were used for this study. Following arrival in the animal facility, all animals were subjected to a general health evaluation. An acclimation period of 7-14 days was allowed before the beginning of the study.
Administration of DSS. Dextran sulfate sodium (DSS) was administered to C57B1/6 mice through addition to their drinking water at 2-3%. Mice accessed the DSS-treated water ad libitum over a 5-day period. Body weight and disease activity index (“DAI”) were measured on Day 5 in order to distribute DSS-treated animals in two uniform groups prior to dosing. Specific symptoms associated with colitis were scored based on the severity of each particular symptoms: 1—blood in stool (negative hemoccult, positive hemoccult, blood traces in stool visible, rectal bleeding); 2—stool consistency (normal, soft but still formed, very soft, diarrhea); 3—posture and fur (normal; ruffled fur; ruffled fur combined to slight hunched posture and slight dehydration; ruffled fur combined to hunched posture, dehydration and altered walking; moribund (euthanasia is mandatory before the animal reach this point). The overall DAI score was the sum of the three parameters (maximum score of 9). DAI assessment was performed on Day 5 only (prior to dosing). […]

in vivo = conditions: male, CD-1, mouse, po, 48 mg/kg
Description: In Vivo Pharmacokinetic Assessments in Rodents
Oral bioavailability of test compounds was conducted by assessing plasma exposure of following one or two oral doses in mice and, in some cases, comparing said plasma exposure with that following a single intravenous dose of the same compound.
Body weights were recorded on the day of dosing.
Food restriction: Animals dosed p.o. were deprived of food overnight and fed ˜2 h following dosing.
Dosing: The formulation containing the test compound were administered p.o. by gavage with disposable feeding needles.
Sample collection: Terminal blood and tissue samples were collected under O2/CO2 anesthesia by cardiac puncture.
Sample processing/storage: All blood samples were transferred into K2EDTA tubes on wet ice and centrifuged within 5 min (3200×g for 5 min at 4° C.) to obtain plasma. Samples were stored frozen at −80° C. until bioanalysis.
Bioanalytical Method Qualification and Sample Analysis:
Instrumentation: AB Sciex API 4000 Q-TRAP MS/MS system equipped with an Agilent LC system with a binary pump, a solvent degasser, a thermostatted column compartment, a CTC autosampler and a divert valve installed between the column and mass spectrometer inlet.

plasma proteins = assay: Plasma protein binding determination, equilibrium dialysis, mouse plasma; conditions: CD-1, mouse, % recovery, Mouse plasma, equilibrium dialysis
Description: as §2

in vitro = conditions: Control buffer/Buffer at 0.1 uM % Recovery
Description: as §2

[3] = test system: DSS experimental model of ulcerative colitis; assay: 8-Day efficacy study in DSS model (therapeutic); type: in vivo, C57BI/6 mice; conditions: for reduction of lesion length vs vehicle group / reduction of DAI score on Day 8 vs DSS+vehicle: Day 5 to Day 8
Text: The STDs in ascending order bracketing the study samples and dosing solutions • 1. The study samples • 2.
Description of Tested Compounds
as §1
Oral dosing of the test article and the vehicle. From Day 5 to Day 8, nacellins and the vehicle were administered as a single slow bolus (over approximately 5 seconds) via oral route (p.o.), according to the procedure of administration of solution by gavage: the animal was firmly restrained. A bulb-tipped gastric gavage needle of 22G was passed through the side of the mouth and was advanced towards the oesophagus. The test articles and the vehicle were dosed orally at 5 mL/kg.
Intraperitoneal dosing of the test articles and the vehicle. On day 5, DATK32 antibody was administered in only on Day 5, as a single slow bolus (over approximately 5 seconds) via the i.p. route. […] Intraperitoneal administration was performed accordingly to the following procedure: the mouse was restrained manually and held with the head and body tilted downward. The tip of the needle (27 G) was inserted through the skin and just past the abdominal wall. A short pull back of the plunger of the syringe was done prior to administration of the solution to make sure that the syringe was not inserted in any abdominal organ (fluid would be pulled back into the syringe in this case).
Inflammation Score. Once the mouse was euthanized, the colon was collected and its length was measured. Lesion length was also measured. Colon inflammation was scored based on severity of oedema and ulceration.
Disease Activity Index (DAI) assessment. Body weight and DAI were measured on Day 5 in order to distribute DSS-treated animals in two uniform groups prior dosing. Specific symptoms associated to UC were scored based on the severity of each particular symptoms: 1—blood in stool (negative hemoccult, positive hemoccult, blood traces in stool visible, rectal bleeding); 2—stool consistency (normal, soft but still formed, very soft, diarrhea); 3—posture and fur (normal; ruffled fur; ruffled fur combined to slight hunched posture and slight dehydration; ruffled fur combined to hunched posture, dehydration and altered walking; moribund (euthanasia is mandatory before the animal reach this point). The overall DAI score was the sum of the three parameters (maximum score 9). Body weight measurement and DAI assessment were performed also on Day 8 to evaluate the effect of the treatments.
Collection of samples. On Day 8, five hours after ET02451-01, ET02452-01 and vehicle dosing, the animals were euthanized by cardiac puncture under general anesthesia, according to the “Guide to the Care and Use of Experimental Animals” published by the CCAC. Blood was transferred in a Sarstedt tube containing EDTA. Mesenteric and peripheral (inguinal, auxiliary and brachial) lymph nodes were collected and transferred on ice in corresponding tubes containing cold PBS. Nodes were kept on ice until tissue preparation.
Cell population labeling. Blood was withdrawn by cardiac puncture and collected on EDTA-coated tubes. Mensenteric lymph nodes (MLN) and peripheral lymph nodes (PLN) were also collected. Mononuclear cells from the tissues will be isolated using density gradient (Lympholyte) and they were stained with fluorescent antibodies. […] After washes, cells were fixed using BD Fix Solution. Percentage of different subpopulations of T lymphocytes were then analysed using FACSCalibur cytometer. Antibodies employed were the same as listed for the single-dose PD studies above.

CC(C)C[C@@H]1NC(=O)[C@@H](Cc2ccncc2)NC(=O)[C@@H]2CCCN2[C@H](C(=O)NC(C)(C)C)[C@H](C)NC(=O)[C@H]([C@@H](C)O)NC(=O)[C@H](CC(=O)O)NC1=O [Compound No. 62]
Determined Concentration Rep 2 (Aqueous solubility assay): 988.2 µM

CC(C)C[C@@H]1NC(=O)[C@H](Cc2c[nH]c3ccccc23)NC(=O)[C@@H]2CCCN2[C@H](C(=O)NC(C)(C)C)[C@H](C)NC(=O)[C@H]([C@@H](C)O)NC(=O)[C@H](CC(=O)O)NC1=O [ET00762]
Control buffer/Buffer at 0.1 uM Cdonor/Creciever [1]: 79%

CC(C)C[C@@H]1NC(=O)[C@H](Cc2ccccc2)NC(=O)[C@@H]2CCCN2[C@H](C(=O)NC(C)(C)C)[C@H](C)NC(=O)[C@H]([C@@H](C)O)NC(=O)[C@H](CC(=O)O)NC1=O [Compound No. 5]
homing to the MLN ([2]; single oral dose 100 mg/kg): significant reduction of homing
Cmax (in vivo): ~1600 ng/mL
recovery at 5 hours, 1 microM (plasma proteins; first table): 130%
recovery at 5 hours, 1 microM (plasma proteins; second table): 97%
Control buffer/Buffer at 0.1 uM Cdonor/Creciever [1]: 80%
recovery at 5 hours, 0.1 uM (in vitro): 108%

CC(C)C[C@@H]1NC(=O)[C@@H](Cc2ccc(O)cc2)NC(=O)[C@@H]2CCCN2[C@H](C(=O)NC(C)(C)C)[C@H](C)NC(=O)[C@H]([C@@H](C)O)NC(=O)[C@H](CC(=O)O)NC1=O [Compound No. 42]
Determined Concentration Rep 2 (Aqueous solubility assay): 960.0 µM

CC(C)C[C@@H]1NC(=O)[C@H](Cc2ccc(-c3ccccc3)cc2)NC(=O)[C@@H]2CCCN2[C@H](C(=O)NC(C)(C)C)[C@H](C)NC(=O)[C@H]([C@@H](C)O)NC(=O)[C@H](CC(=O)O)NC1=O [Compound No. 12]
recovery at 5 hours, 1 microM (plasma proteins; second table): 89%
Control buffer/Buffer at 0.1 uM Cdonor/Creciever [1]: 94%
recovery at 5 hours, 0.1 uM (in vitro): 128%

CC(C)C[C@@H]1NC(=O)CN(C)C(=O)[C@H](Cc2ccc(O)cc2)NC(=O)[C@@H]2CCCN2[C@H](C(=O)NC(C)(C)C)[C@H](C)NC(=O)[C@H]([C@@H](C)O)NC(=O)[C@H](CC(=O)O)NC1=O [Compound No. 105]
homing to the MLN ([2]; single oral dose 200 mg/kg): significant and robust attenuation of homing

CC(C)C[C@@H]1NC(=O)C2(CCCC2)NC(=O)[C@@H]2CCCN2[C@H](C(=O)NC(C)(C)C)[C@H](C)NC(=O)[C@H]([C@@H](C)O)NC(=O)[C@H](CC(=O)O)NC1=O [Compound No. 88]
Determined Concentration Rep 3 (Aqueous solubility assay): 934.8 µM

CC(C)C[C@@H]1NC(=O)c2ccc(-c3ccnc4ccccc34)c(c2)CNC(=O)[C@@H]2CCCN2[C@H](C(=O)NC(C)(C)C)[C@H](C)NC(=O)[C@H]([C@@H](C)O)NC(=O)[C@H](CC(=O)O)NC1=O [Compound No. 341]
reduction of lesion length vs vehicle group ([3]; 40 mg/kg p.o.): 53%
reduction of DAI score on Day 8 vs DSS+vehicle ([3]; 40 mg/kg p.o., b.i.d.): did not have any beneficial effect
CD3+CD4+α4β7+ cell population in mesenteric lymph nodes ([3]; 65 mg/kg i.p.): significant decrease
reduction of colon inflammation score vs vehicle ([3]; 65 mg/kg i.p.): 39%
reduction of DAI score on Day 8 vs DSS+vehicle ([3]; 65 mg/kg i.p.): 46%
reduction of lesion length vs vehicle group ([3]; 65 mg/kg i.p.): 20%

CC(C)NCC(O)COc1cccc2ccccc12 (stereo not drawn) [Propranalol, propranolol, reference compound]
% unbound (Cbuffer/Cplasma) 1 ([1]; Mouse plasma, 1 microM, replicate 1): 22.8%
